According to patent publication US20250031734A1, “COMPOSITIONS COMPRISING REBAUDIOSIDE J” (PepsiCo, Inc., priority 2016, published 2025):
Where a SMILES comes first, the peptide text is derived from it.

Assays:
sensory panelists = experiment: Sweetness modifier test, control vs sample with 30 ppm rebaudioside J (Example 6A); format: in vivo, human; conditions: sweetener plus 30 ppm rebaudioside J vs sweetener alone; about 5% SEV / 5 degrees Brix; pH 3.1 phosphate buffer; 13 to 16 panelists
Experimental: The ability of rebaudioside J to modify the sweetness of natural and artificial sweeteners was assessed by comparing the sweetness of control samples without rebaudioside J to the sweetness of samples containing a mixture of the natural or artificial sweetener being tested and rebaudioside J. Control solutions were prepared by dissolving sucrose, HFCS, acesulfame-K, aspartame, and sucralose in pH 3.1 phosphate buffer. […] Sucrose and high fructose corn syrup (HFCS) were prepared as 5 degrees Brix solutions. This concentration was confirmed with an Anton Paar refractometer. […] Experimental samples were identical to control samples except for the addition of 30 ppm rebaudioside J. Tasting Protocol: The number of sensory panelists ranged from 13 to 16 for all sweeteners tested. Panelists were provided with a control sample prepared as described above. Panelists were also provided with an otherwise identical experimental sample prepared as described above. Panelists were asked to determine which sample tasted sweeter. […] Panelists wore nose clips and were blinded to the identity of the samples. Sensitivity index, also referred to as a “d' score” was calculated using known statistical methods.

[1] = system: trained sensory panelists; experiment: Adaptation, sweetness and bitterness over time (Example 4B); format: in vivo, human
Experimental: Three evaluations (replicates) were obtained from each panelist for each evaluation, and a total of 30 judgments were obtained for each sample. The samples were evaluated for sweetness and bitterness. Samples were presented blind and coded with random three-digit numbers.
Each panelists took a sip, swirled the sample in his or her mouth for 10 seconds, expectorated and subsequently rated sweetness intensity and bitterness intensity using a 15-point line scale. Panelists repeated this procedure every 30 seconds for 3 minutes. After rinsing 6 times with water, the panelists were given a new sample and that sample was evaluated using the procedure described above

[2] = system: trained sensory panelists; experiment: Dose response, trained sensory panel, 15-point line scale (Example 4A); format: in vivo, human; conditions: eight concentrations 11.13-625.61 ppm
Experimental: Eight concentrations of rebaudioside J with one blank solution were evaluated (Table 1). Trained sensory panelists participated in an orientation session to familiarize themselves with sample set. Three evaluations (replicates) were obtained from each panelist for each evaluation, and a total of 30 judgments were obtained for each sample.
The panelists were served 10 mL portions of each sample. A 10-minute break was taken between samples. To determine sweetness intensity, the panelists were provided sucrose-containing sweetness intensity reference samples for intensities 5, 8, and 10. For each test sample, the panelists indicated the sweetness intensity of the test sample (labeled with a 3-digit number) on a 15-point line scale.

human sense of taste = experiment: Sweetness recognition threshold comparison with 1.5% sucrose; format: in vivo; conditions: rebaudioside J 40 ppm
From the text: The term “sweetness recognition threshold concentration,” as generally used herein, is the lowest known concentration of a given sweetener or combination of sweeteners recognized as sweet by the human sense of taste, typically about 1.5% sucrose equivalence.

panelists = experiment: Benchtop sweetness ranking on 1-10 scale against rebaudioside A 400 ppm and sucrose 6.5% (Example 3); format: in vivo, human; conditions: 400 ppm
Experimental: Sample preparation: 4 degrees Brix HFCS control solution was prepared by adding 50.89 grams of 78.60 degrees Brix HFCS to 1000 g phosphoric acid base which was prepared by adding phosphoric acid dropwise into 1 L of AQUAFINA water until a pH of 3.1 was observed on a calibrated METTLER TOLEDO PH meter.
For some low soluble compounds, Branson 2800 Ultra Sonic Bath was used to dissolve the material. If any cloudiness persisted, the sample solution was passed through a paper filter. Solubility was confirmed by shining a laser pointer through the solution. If no diffraction was observed then it was assumed that the material was soluble.
Preparation of Rebaudioside A for Sensory Evaluation: 400 ppm rebaudioside A in water (pH=7) was prepared by dissolving 40 mg of rebaudioside A with stirring in 100 mL of water at room temperature.
Preparation of Sucrose for Sensory Evaluation: 6.5% sucrose in water (pH=7) was prepared by adding 6.5 g of sucrose and dissolving it in 93.5 g water (total 100 gr).
Tasting Protocol: Panelists were presented with two numbered samples and asked to note the sweet quality differences between the two samples. Panelists commented on sweetness onset, sweetness linger, overall sugar-like sweetness, and other qualities, such as bitter taste, metallic note, astringency, cooling sensation, any off-notes, and any associated flavors. […]

[3] = system: trained sensory panelists; experiment: Targeted descriptive analysis (Example 4C); format: in vivo, human; conditions: vs rebaudioside A
Experimental: Panelists participated in an orientation session to familiarize themselves with sample set. They reviewed aroma, taste, flavor, and texture to determine the attributes most important for describing and differentiating the samples. These attributes were used to develop the ballot for the test evaluations. Three evaluations (replicates) were obtained from each panelist for each evaluation, and a total of 30 judgments were obtained for each sample. 45 mL of each sample was served in a sequential monadic presentation. The serving order was balanced for each panelist. For each test sample, the panelists indicated the intensity of each sensory attribute (labeled with a 3-digit number) on a 15-point line scale.

[4] = rated every 30 seconds for 3 minutes, 15-point line scale

CC1=CC(=O)NS(=O)(=O)O1 [Acesulfame potassium]
Panelist reporting Rebaudioside J increased sweetness (%) (sensory panelists): 85% | d' Score (sensory panelists): 2.30

COC(=O)[C@H](Cc1ccccc1)NC(=O)[C@@H](N)CC(=O)O [Aspartame, aspartame] (H-Asp-Phe-OMe)
Panelist reporting Rebaudioside J increased sweetness (%) (sensory panelists): 86% | d' Score (sensory panelists): 2.13

C=C1C[C@@]23CC[C@H]4[C@@](C)(CCC[C@@]4(C)C(=O)O[C@@H]4O[C@H](CO)[C@@H](O)[C@H](O)[C@H]4O[C@@H]4O[C@@H](C)[C@H](O)[C@@H](O)[C@H]4O)[C@@H]2CC[C@]1(O[C@@H]1O[C@H](CO)[C@@H](O)[C@H](O[C@@H]2O[C@H](CO)[C@@H](O)[C@H](O)[C@H]2O)[C@H]1O[C@@H]1O[C@H](CO)[C@@H](O)[C@H](O)[C@H]1O)C3 [Rebaudioside J, rebaudioside J]
bitterness intensity over time (FIG. 5) [1, 4]: remains low | sweetness intensity over time (FIG. 5) [1, 4]: decreases over time | bitterness over time compared with rebaudioside A (FIG. 7) ([1]; vs rebaudioside A): less bitter than rebaudioside A | bitterness intensity (FIG. 4) [2]: low and only increased slightly with increasing concentration | sweetness intensity (FIG. 4) [2]: increases with increasing concentration | sweetness compared with 1.5% sucrose (sweetness recognition threshold) (human sense of taste): less sweet than 1.5% sucrose | panelists' notes on taste characteristics (panelists): lack of bitterness, sugar-like, syrupy and round characteristics | sweetness score on scale of 1-10 (FIG. 3) (panelists; rebaudioside A 400 ppm assigned 5, sucrose 6.5% assigned 10, noseclips, blinded): 6.7 | bitterness compared with rebaudioside A (FIG. 6) ([3]; 15-point line scale): less bitter | chemical/artificial taste compared with rebaudioside A (FIG. 6) ([3]; 15-point line scale): less chemical/artificial taste than rebaudioside A | overall impression compared with rebaudioside A (FIG. 8) [3]: scored higher in overall impression than rebaudioside A

OC[C@H]1O[C@H](O[C@]2(CCl)O[C@H](CCl)[C@@H](O)[C@@H]2O)[C@H](O)[C@@H](O)[C@H]1Cl [Sucralose, sucralose]
Panelist reporting Rebaudioside J increased sweetness (%) (sensory panelists): 89% | d' Score (sensory panelists): 2.44

OC[C@H]1O[C@@](CO)(O[C@H]2O[C@H](CO)[C@@H](O)[C@H](O)[C@H]2O)[C@@H](O)[C@@H]1O [Sucrose, sucrose]
Panelist reporting Rebaudioside J increased sweetness (%) (sensory panelists): 85% | d' Score (sensory panelists): 2.00
